The text below walks through data of patent US20240174690A1, “ANNULATED 2-AMINO-3-CYANO THIOPHENES AND DERIVATIVES FOR THE TREATMENT OF CANCER” (BOEHRINGER INGELHEIM INTERNATIONAL GMBH, priority 2021, published 2024).

In general, IC50 refers to the concentration at which inhibition is half-maximal. A high value points to a need for much substance.

In data set [1] the test system is KRAS G12C-dependent Ba/F3 cells. The data set is described as follows: Ba/F3 proliferation assay, KRAS G12C. Type of data set: cell-based. Conditions: Mus musculus, BaF3, 72 h, AlamarBlue. As to the method:
(§1) Plasmids containing KRASG12 mutants (i.e. […], G12C, G12V) are obtained from GeneScript. To generate KRASG12-dependent Ba/F3 models, Ba/F3 cells are transduced with retroviruses containing vectors that harbor KRASG12 isoforms. Platinum-E cells (Cell Biolabs) are used for retrovirus packaging. Retrovirus is added to Ba/F3 cells. To ensure infection, 4 μg/mL polybrene is added and cells are spinfected. […] Cells with an infection efficiency of 10% to 20% are further cultivated and puromycin selection with 1 μg/mL is initiated. As a control, parental Ba/F3 cells are used to show selection status. Selection is considered successful when parental Ba/F3 cells cultures died. To evaluate the transforming potential of KRASG12 mutations, the growth medium is no longer supplemented with IL-3. Ba/F3 cells harboring the empty vector are used as a control. Approximately ten days before conducting the experiments, puromycin is left out.
(§2) Compounds are added using an Access Labcyte Workstation with a Labcyte Echo 550 or 555 accoustic dispenser. All treatments are performed in technical duplicates. […] AlamarBlue™ (ThermoFisher), a viability stain, is added and fluorescence measured in the PerkinElmer Envision HTS Multilabel Reader. The raw data are imported into and analyzed with the Boehringer Ingelheim proprietary software MegaLab (curve fitting based on the program PRISM, GraphPad Inc.).

The nature of data set [2]: Metabolic (microsomal) stability assay, human liver microsomes (HLM). In kind it is in vitro ADME. The following applies: predicted clearance as percent of liver blood flow, 1 μM. As to the method: The metabolic degradation of the test compound is assayed at 37° C. with pooled liver microsomes (mouse (MLM), rat (RLM) or human (HLM)). The final incubation volume of 48 μL pertime point contains TRIS buffer (pH 7.5; 0.1 M), magnesium chloride (6.5 mM), microsomal protein (0.5 mg/mL for mouse/rat, 1 mg/mL for human specimens) and the test compound at a final concentration of 1 μM. Following a short preincubation period at 37° C., the reactions are initiated by addition of 12 μL beta-nicotinamide adenine dinucleotide phosphate, reduced form (NADPH, 10 mM) and terminated by transferring an aliquot into solvent after different time points (0, 5, 15, 30, 60 min). Additionally, the NADPH-independent degradation is monitored in incubations without NADPH, terminated at the last time point by addition of acetonitrile. The quenched incubations are pelleted by centrifugation (4,000 rpm, 15 min). An aliquot of the supernatant is assayed by LC-MS/MS to quantify the concentration of parent compound in the individual samples.
In vitro intrinsic clearance (CLint, in vitro) is calculated from the time course of the disappearance of the test drug during the microsomal incubation. Each plot is fitted to the first-order elimination rate constant as C(t)═C0*exp(−ke*t), where C(t) and C0 are the concentration of unchanged test drug at incubation time t and that at preincubation and ke is the disappearance rate constant of the unchanged drug. Subsequently, CLint in vitro (μL min^−1·amount protein) values are converted to predicted CLint,in vivo (mL min^−1 kg^−1) from incubation parameters according to the equation CLint, in vivo=CLint, in vitro×(incubation volume (ml)/amount protein (mg))×(amount protein (mg)/g liver tissue)×(liver weight/body wt.).
For better across species comparison the predicted clearance is expressed as percent of the liver blood flow [% QH] (mL min^−1·kg^−1) in the individual species. In general, high stability (corresponding to low % QH) of the compounds across species is desired.

Data set [3] relates to SK-CO-1 cells. The experiment in a line: SK-CO-1 CTG proliferation assay (120 h) (CRC, G12V). Type of data set: cell-based. The following applies: Homo sapiens; SK-CO-1 cells (CRC, G12V), CTG 120 h. As to the method: SK-CO-1 CTG Proliferation Assay (120 h) (CRC, G12V)
SK-CO-1 cells (ATCC HTB-39) are dispensed into 384-well plates, flat and clear bottom (Greiner, PNr. 781091) at a density of 500 cells per well in 60 μL EMEM (Sigma M5650)+10% Fetal Calf Serum (HyClone, PNr.: SH30084.03) and incubated at 37° C. in a CO2 incubator overnight. The next day, compounds (10 mM stock in DMSO) are added with the ECHO acoustic liquid handler system (Beckman Coulter), including DMSO controls. Plates are incubated for 120 h, and cell viability is measured using CellTiter-Glo luminescent cell viability reagent (Promega product code G7570). Viability (stated as percent of control) is defined as relative luminescence units RLU of each well divided by the RLU of cells in DMSO controls. IC50 values are determined from viability measurements by non-linear regression using a four-parameter model.

The subject of data set [4] is KRAS G12V-dependent Ba/F3 cells. The experiment in a line: Ba/F3 proliferation assay, KRAS G12V.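 Also: proliferation IC50 in KRAS G12V-dependent Ba/F3 cells read by AlamarBlue.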 Type of data set: cell-based. The following applies: Mus musculus, BaF3, 72 h, AlamarBlue. The procedure:
as §1, §2

The subject of data set [5] is NCI-H2122 cells. The data set is described as follows: NCI-H2122 CTG proliferation assay (120 h) (NSCLC, G12C). Type of data set: cell-based. The following applies: Homo sapiens. As to the method: NCI-H2122 CTG Proliferation Assay (120 h) (NSCLC, G12C)
The CTG assay is designed to measure quantitatively the proliferation of NCI-H2122 cells (ATCC CRL-5985), using the CellTiter Glow Assay Kit (Promega G7571). Cells are grown in RPMI medium (ATCC) supplemented with Fetal Calf Serum (Life Technologies, Gibco BRL, Cat. No. 10270-106). On “day 0” 200 NCI-H2122 cells are seeded in 60 μL RPMI ATCC+10% FCS+Penstrep in a black 384-well plate, flat and clear bottom (Greiner, PNr. 781091). Cells are then incubated in the plates at 37° C. in a CO2 incubator overnight. On day 1, compounds (10 mM stock in DMSO) are added with the ECHO acoustic liquid handler system (Beckman Coulter), including DMSO controls. Plates are incubated for 120 h, and cell viability is measured using CellTiter-Glo luminescent cell viability reagent (Promega product code G7570). Viability (stated as percent of control) is defined as relative luminescence units RLU of each well divided by the RLU of cells in DMSO controls. IC50 values are determined from viability measurements by non-linear regression using a four parameter model.

SMILES strings stand for the structures.

Take `C[C@H](Oc1cc(N2CCNC3(CC3)C2)nc(-c2onc3c2CCC[C@@]32CCCc3sc(N)c(C#N)c32)n1)[C@@H]1CCCN1C` [I-5]: the IC50 in data set [1] came out at 124 nM; in data set [3], 987 nM; in data set [4], 253 nM; in data set [5], 2420 nM. Also, the “HLM QH” value in data set [2] is recorded as less than 24%.

For the molecule `C[C@H](Oc1cc(N2C[C@H](C)N[C@@H](C)C2)nc(-c2onc3c2CCC[C@@]32CCCc3sc(N)c(C#N)c32)n1)[C@@H]1CCCN1C` [I-6], the IC50 in data set [1] turned out to be 253 nM; in data set [3] it was 2080 nM; in data set [4], 316 nM; in data set [5], 3380 nM. In data set [2], the “HLM QH” value is on record as less than 24%.

With `C[C@H]1CN(C)CCCN1c1cc(N2CCN(C)CC2)nc(-c2onc3c2CCC[C@@]32CCCc3sc(N)c(C#N)c32)n1` [I-7], the IC50 stood at 608 nM in data set [1], 1490 nM in data set [3] and 3460 nM in data set [5]. Further, in data set [2], the “HLM QH” value is less than 24%.

As to `C[C@H](Oc1cc(N2C[C@H](C)NC3(CC3)C2)nc(-c2onc3c2CCC[C@@]32CCCc3sc(N)c(C#N)c32)n1)[C@@H]1CCCN1C` [I-8], the IC50 amounted to 106 nM in data set [1], 532 nM in data set [3], 258 nM in data set [4] and 3040 nM in data set [5]. The “HLM QH” value in data set [2] is recorded as less than 24%.

With `C[C@H](Oc1cc(N2CCN3CCC3C2)nc(-c2onc3c2CCC[C@@]32CCCc3sc(N)c(C#N)c32)n1)[C@@H]1CCCN1C` (stereo partly drawn) [I-9], the IC50 amounted to 264 nM in data set [1], 10800 nM in data set [3], 496 nM in data set [4] and 3340 nM in data set [5]. In addition, the “HLM QH” value in data set [2] is recorded as less than 24%.

`C[C@H](Oc1cc(N2CCNCC23CCOC3)nc(-c2onc3c2CCC[C@@]32CCCc3sc(N)c(C#N)c32)n1)[C@@H]1CCCN1C` (stereo partly drawn) [I-10]: the IC50 was determined as 218 nM in data set [1] and 247 nM in data set [4]. Further, the “HLM QH” value in data set [2] was 30%.

Regarding `C[C@H](Oc1cc(N2CC[C@H](N(C)C)C2)nc(-c2onc3c2CCC[C@@]32CCCc3sc(N)c(C#N)c32)n1)[C@@H]1CCCN1C` [I-11], the IC50 in data set [1] was 331 nM; in data set [3] it was 530 nM; in data set [4] it was 416 nM; in data set [5], 2560 nM. In addition, in data set [2], the “HLM QH” value is less than 24%.

For `C[C@H](Oc1cc(N2CC[C@H](N(C)C)C2)nc(-c2noc3c2CCC[C@@]32CCCc3sc(N)c(C#N)c32)n1)[C@@H]1CCCN1C` [II-49], the IC50 turned out to be 329 nM in data set [1], 872 nM in data set [3], 304 nM in data set [4] and 2840 nM in data set [5]. Also, the “HLM QH” value in data set [2] was less than 24%.

Consider `C[C@H](Oc1cc(N2CCNC[C@]23CCOC3)nc(-c2noc3c2CCC[C@@]32CCCc3sc(N)c(C#N)c32)n1)[C@@H]1CCCN1C` [II-50], for which the IC50 is 270 nM in data set [1], 802 nM in data set [3], 393 nM in data set [4] and 2680 nM in data set [5]. Further, in data set [2], the “HLM QH” value is given as 52%.

With `C[C@H](Oc1cc(N2CCNC[C@@]23CCOC3)nc(-c2noc3c2CCC[C@@]32CCCc3sc(N)c(C#N)c32)n1)[C@@H]1CCCN1C` [II-51], the IC50 in data set [1] turned out to be 314 nM; in data set [3], 772 nM; in data set [4], 693 nM; in data set [5], 2560 nM. Besides, in data set [2], the “HLM QH” value is 37%.

With `C[C@H](Oc1cc(-n2cc3c(n2)CCNC3)nc(-c2noc3c2CCC[C@@]32CCCc3sc(N)c(C#N)c32)n1)[C@@H]1CCCN1C` [II-53], the IC50 stood at 292 nM in data set [1], 566 nM in data set [3], 285 nM in data set [4] and 3690 nM in data set [5]. In addition, the “HLM QH” value in data set [2] is 46%.

Consider `C[C@H](Oc1cc(N2CCNC3(CC3)C2)nc(-c2noc3c2CCC[C@@]32CCCc3sc(N)c(C#N)c32)n1)[C@@H]1CCCN1C` [II-54], for which the half-inhibitory concentration (IC50) was found to be 74 nM in data set [1], 464 nM in data set [3], 157 nM in data set [4] and 1770 nM in data set [5]. Moreover, in data set [2], the “HLM QH” value is recorded as 28%.

As for `C[C@H](Oc1cc(N2CCN(C)CC2)nc(-c2noc3c2CCC[C@@]32CCCc3sc(N)c(C#N)c32)n1)[C@@H]1CCCN1C` [II-55], the IC50 in data set [1] is 297 nM; in data set [3], 754 nM; in data set [4], 302 nM; in data set [5], 4910 nM. For the same molecule, the “HLM QH” value in data set [2] was less than 24%.

For `C[C@H](Oc1cc(N2C[C@H](C)N[C@@H](C)C2)nc(-c2noc3c2CCC[C@@]32CCCc3sc(N)c(C#N)c32)n1)[C@@H]1CCCN1C` [II-56], the IC50 is 233 nM in data set [1], 554 nM in data set [3], 166 nM in data set [4] and 3190 nM in data set [5]. Also, the “HLM QH” value in data set [2] is recorded as less than 24%.

`C[C@H](Oc1cc(N2CCC[C@H](O)C2)nc(-c2noc3c2CCC[C@@]32CCCc3sc(N)c(C#N)c32)n1)[C@@H]1CCCN1C` [II-57]: the IC50 in data set [1] was 38 nM; in data set [3], 87 nM; in data set [4], 45 nM; in data set [5], 916 nM. Moreover, in data set [2], the “HLM QH” value is given as less than 24%.

On to `Cc1nc(-c2cc(O[C@@H](C)[C@@H]3CCCN3C)nc(-c3noc4c3CCC[C@@]43CCCc4sc(N)c(C#N)c43)n2)cs1` [II-103], for which the IC50 in data set [1] came out at 7 nM. In data set [2], the “HLM QH” value is reported as less than 24%.

For the molecule `C[C@H](Oc1cc(-c2ccn3ncnc3c2)nc(-c2noc3c2CCC[C@@]32CCCc3sc(N)c(C#N)c32)n1)[C@@H]1CCCN1C` [II-104], the IC50 in data set [1] was 24 nM; in data set [4] it was 12 nM. Besides, the “HLM QH” value in data set [2] is less than 24%.

For the molecule `C[C@H](Oc1cc(-n2cncc3ccnc2-3)nc(-c2noc3c2CCC[C@@]32CCCc3sc(N)c(C#N)c32)n1)[C@@H]1CCCN1C` [II-105], the IC50 turned out to be 12 nM in data set [1], 31 nM in data set [3], 6 nM in data set [4] and 847 nM in data set [5].

`C[C@H](Oc1cc(-c2cn(C3CCOCC3)nn2)nc(-c2noc3c2CCC[C@@]32CCCc3sc(N)c(C#N)c32)n1)[C@@H]1CCCN1C` [II-115]: the IC50 in data set [1] was 29 nM; in data set [4] it was 34 nM. Besides, in data set [2], the “HLM QH” value is less than 24%.
